Consider 23 molecules from patent US20170280720A1, “ARGININE […] INHIBITORS AND USES THEREOF” (EPIZYME, INC., priority 2014, published 2017).

A word on the IC50: it is the concentration at which inhibition is half-maximal.

One assay deals with T1, Human CARM1 (PRMT4) (Homo sapiens, UniProt Q86X55).
T1 construct: Flag-CARM1-His; made in house; host or cells: HEK 293F cells (BacMam baculovirus, pFastBacMam)
T1 sequence (Q86X55 2-585 isoform Q86X55-1): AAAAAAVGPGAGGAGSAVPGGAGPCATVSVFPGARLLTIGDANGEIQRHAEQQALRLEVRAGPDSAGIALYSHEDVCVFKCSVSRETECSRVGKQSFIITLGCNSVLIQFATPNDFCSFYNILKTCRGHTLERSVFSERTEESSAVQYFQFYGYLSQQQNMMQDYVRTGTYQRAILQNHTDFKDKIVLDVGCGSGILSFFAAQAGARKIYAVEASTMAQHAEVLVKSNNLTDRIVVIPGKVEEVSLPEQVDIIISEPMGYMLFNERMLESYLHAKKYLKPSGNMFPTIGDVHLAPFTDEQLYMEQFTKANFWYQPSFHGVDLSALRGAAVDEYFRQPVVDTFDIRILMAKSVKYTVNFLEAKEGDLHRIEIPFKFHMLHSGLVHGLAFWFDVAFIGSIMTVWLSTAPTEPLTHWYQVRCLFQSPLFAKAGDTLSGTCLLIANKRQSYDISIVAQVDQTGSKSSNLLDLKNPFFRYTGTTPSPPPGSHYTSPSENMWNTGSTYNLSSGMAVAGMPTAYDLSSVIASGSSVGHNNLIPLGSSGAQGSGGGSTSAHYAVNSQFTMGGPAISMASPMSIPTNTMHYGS
Description: CARM1 biochemical assay (3H-SAM Flashplate, peptide substrate). The settings on record: read-out: CARM1_ IC50. The text has this: S-adenosylmethionine (SAM), S-adenosylhomocysteine (SAH), bicine, Tween20, dimethylsulfoxide (DMSO), bovine skin gelatin (BSG), sodium butyrate and Tris(2-carboxyethyl)phosphine hydrochloride solution (TCEP) were purchased from Sigma-Aldrich at the highest level of purity possible. ^3H-SAM was purchase from American Radiolabeled Chemicals with a specific activity of 80 Ci/mmol. 384-well streptavidin Flashplates were purchased from PerkinElmer.
Peptide representative of human histone H3 residues 16-30 was synthesized with an N-terminal linker-affinity tag motif and a C-terminal amide cap by 21st Century Biochemicals. The peptide was purified by high-performance liquid chromatography (HPLC) to greater than 95% purity and confirmed by liquid chromatography mass spectrometry (LC-MS). The sequence was Biot-Ahx-[…]-amide and contained a monomethylated arginine at position 26 (SEQ ID NO.: 14).
Human CARM1 (PRMT4) (NM_199141.1) transcript clone was amplified from an HEK 293 cDNA library, incorporating a flanking 5′ sequence encoding a FLAG tag ([…]) (SEQ ID NO.: 6) fused directly to Ala 2 of CARM1 and 3′ sequence encoding a hexa His sequence ([…]) (SEQ ID NO.: 15) fused directly to Ser 608. The gene sequence encoding isoform1 containing a deletion of amino acids 539-561 was amplified subsequently and subcloned into pFastBacMam (Viva Biotech).
Recombinant baculovirus were generated according to Bac-to-Bac kit instructions (Life Technologies). […] Infections were carried out at 37° C. for 48 hours, harvested by centrifugation, and stored at −80° C. for purification.
Column was washed with 500 mM NaCl in buffer A and Flag-CARM1-His was eluted with 200 ug/ml FLAG peptide in buffer A. Pooled fractions were dialyzed in 20 mM Tris, 150 mM NaCl, 5% glycerol and 1 mM DTT, pH 7.8. The purity of recovered protein was 94.
General Procedure for CARM1 Enzyme Assays on Peptide Substrates.
The assays were all performed in a buffer consisting of 20 mM Bicine (pH=7.6), 1 mM TCEP, 0.005% BSG, and 0.002% Tween 20, prepared on the day of use. Compounds in 100% DMSO (1 ul) were spotted into a polypropylene 384-well V-bottom plates (Greiner) using a Platemate Plus outfitted with a 384-channel head (Thermo Scientific). DMSO (1 ul) was added to Columns 11, 12, 23, 24, rows A-H for the maximum signal control and 1 ul of SAH, a known product and inhibitor of CARM1, was added to columns 11, 12, 23, 24, rows I-P for the minimum signal control. A cocktail (40 ul) containing the CARM1 enzyme was added by Multidrop Combi (Thermo-Fisher). The compounds were allowed to incubate with CARM1 for 30 min at room temperature, then a cocktail (10 ul) containing ^3H-SAM and peptide was added to initiate the reaction (final volume=51 ul). The final concentrations of the components were as follows: CARM1 was 0.25 nM, ^3H-SAM was 30 nM, peptide was 250 nM, SAH in the minimum signal control wells was 1 mM, and the DMSO concentration was 2%. The assays were stopped by the addition of non-radiolabeled SAM (10 ul) to a final concentration of 300 uM, which dilutes the ^3H-SAM to a level where its incorporation into the peptide substrate is no longer detectable. 50 ul of the reaction in the 384-well polypropylene plate was then transferred to a 384-well Flashplate and the biotinylated peptides were allowed to bind to the streptavidin surface for at least 1 hour before being washed once with 0.1% Tween20 in a Biotek ELx405 plate washer. The plates were then read in a PerkinElmer TopCount plate reader to measure the quantity of ^3H-labeled peptide bound to the Flashplate surface, measured as disintegrations per minute (dpm) or alternatively, referred to as counts per minute (cpm).
Where dpm=disintegrations per minute, cmpd=signal in assay well, and min and max are the respective minimum and maximum signal controls.
Where top and bottom are the normally allowed to float, but may be fixed at 100 or 0 respectively in a 3-parameter fit. […]

For assay [1], the system named is asymmetric di-methyl PABP1 in RKO cells. Description: In Cell Western (ICW) for asymmetric di-methyl PABP1 and DNA content in RKO cells. In kind it is cell-based. The settings on record: Homo sapiens, RKO, In Cell Western. The text has this:
RKO adherent cells were purchased from ATCC (American Type Culture Collection), Manassas, Va., USA. DMEM/Glutamax medium, penicillin-streptomycin, heat inactivated fetal bovine serum, 0.05% trypsin and D-PBS were purchased from Life Technologies, Grand Island, N.Y., USA. Odyssey blocking buffer, 800CW goat anti-rabbit IgG (H+L) antibody, and Licor Odyssey infrared scanner were purchased from Licor Biosciences, Lincoln, Nebr., USA. Mono-methyl arginine antibody was purchased from Cell Signaling Technology, Danvers, Mass., USA. Methanol was purchased from VWR, Franklin, Mass., USA. 10% Tween 20 was purchased from KPL, Inc., Gaithersburg, Md., USA. […] was purchased from Biostatus Limited, Leicestershire, UK. RKO adherent cells were maintained in growth medium (DMEM/Glutamax medium supplemented with 10% v/v heat inactivated fetal bovine serum and 100 units/mL penicillin-streptomycin) and cultured at 37° C. under 5% CO2. Cell Treatment, in Cell Western (ICW) for Detection of Asymmetric Di-Methyl PABP1 and DNA Content. RKO cells were seeded in assay medium at a concentration of 30,000 cells per mL to a poly-D-lysine coated 384 well culture plate (BD Biosciences 356697) with 50 μL per well. Compound (100 nL) from a 96-well source plate was added directly to 384 well cell plate. Plates were incubated at 37° C., 5% CO2 for 48 hours. After two days of incubation, plates were brought to room temperature outside of the incubator for ten minutes and blotted on paper towels to remove cell media. Cells were fixed for 20 minutes at room temperature by adding 50 μl of 8% PFA followed by aspiration of supernatant with the Biotek EL406 plate washer. Cells were then permeabilized by addition of 50 μL of ice cold 100% methanol directly to each well and incubated for 30 min at room temperature. After 30 min, plates were transferred to a Biotek EL406 plate washer and washed 2 times with 100 μL per well of wash buffer (1×PBS). Next 60 μL per well of Odyssey blocking buffer (Odyssey Buffer with 0.1% Tween 20 (v/v)) were added to each plate and incubated 1 hour at room temperature. Blocking buffer was removed and 20 μL per well of primary antibody was added (asymmetric-methyl PABP1) diluted 1:400 in Odyssey buffer with 0.1% Tween 20 (v/v)) and plates were incubated overnight (16 hours) at 4° C. Plates were washed 5 times with 100 μL per well of wash buffer. Next 20 μL per well of secondary antibody was added (1:800 800CW goat anti-rabbit IgG (H+L) antibody, 1:2000 DRAQS in Odyssey buffer with 0.1% Tween 20 (v/v)) and incubated for 1 hour at room temperature. The plates were washed 5 times with 100 μL per well wash buffer then 2 times with 100 μL per well of water. Plates were allowed to dry at room temperature then imaged on the Licor Odyssey machine which measures integrated intensity at 700 nm and 800 nm wavelengths. Both 700 and 800 channels were scanned. Calculations: First, the ratio for each well was determined by: Each plate included fourteen control wells of DMSO only treatment (minimum inhibition) as well as fourteen control wells for maximum inhibition treated with 20 μM of a reference compound. The average of the ratio values for each control type was calculated and used to determine the percent activation for each test well in the plate. Reference compound was serially diluted three-fold in DMSO for a total of nine test concentrations, beginning at 20 μM. Percent inhibition was determined and IC50 curves were generated using triplicate wells per concentration of compound.

For the molecule `CC(C)n1ncc2c(C(=O)NC3CCOC3)cc(-c3cccc(CN(C)CCN)c3)nc21` (stereo not shown) [Compound 202], the concentration for half-maximal inhibition (IC50) at Human CARM1 (PRMT4) is 19.1 nM; in assay [1], 1990 nM.

As for `CNCCN(C)Cc1cccc(-c2cc(C(=O)N3CCN(C)C(=O)C3)c3cnn(C(C)C)c3n2)c1` [Compound 296], the IC50 at Human CARM1 (PRMT4) stood at 183 nM; in assay [1], 15700 nM.

Take `CCn1ncc2c(C(=O)NC3CCOCC3)cc(-c3cccc(CN(C)CCNC)c3)nc21` [Compound 253]: the results for the IC50 (at Human CARM1 (PRMT4); in assay [1]) were 61.3 nM and 6090 nM, respectively.

As to `CNCCN(C)Cc1cccc(-c2cc(C(=O)NCc3cn(C)cn3)c3cnn(C(C)C)c3n2)c1` [Compound 223], the IC50 on Human CARM1 (PRMT4) amounted to 35.3 nM; in assay [1], 3470 nM.

In the case of `Cc1c(CNC(=O)c2cc(-c3cccc(CN(C)CCN)c3)nc3c2cnn3C(C)C)cnn1C` [Compound 183], the results for the half-maximal inhibitory concentration (IC50) (at Human CARM1 (PRMT4); in assay [1]) were 11.6 nM and 1970 nM, respectively.

Take `CNCCN(C)Cc1cccc(-c2cc(C(=O)NCc3cnc4ccccn34)c3cnn(C(C)C)c3n2)c1` [Compound 176]: the values for the IC50 (on Human CARM1 (PRMT4); in assay [1]) were 7.29 nM and 865 nM, respectively.

In the case of `CN(CCN)Cc1cccc(-c2ccc(C(=O)NC3CCOCC3)c(N(C)CC3CC3)c2)c1` [Compound 245], the figures for the IC50 (at Human CARM1 (PRMT4); in assay [1]) were 53.6 nM and 20000 nM, respectively.

Regarding `CNCCN(C)Cc1cccc(-c2cc(-c3ccco3)c3cnn(C(C)C)c3n2)c1` [Compound 209], the IC50 is 21.7 nM at Human CARM1 (PRMT4) and 20000 nM in assay [1].

For `CCNC(=O)c1cc(-c2cccc(CN(C)CCNC)c2)nc2c1cnn2C(C)C` [Compound 255], the IC50 at Human CARM1 (PRMT4) is 62.3 nM; in assay [1] it was 3870 nM.

Regarding `CC(C)n1ncc2c(C(=O)NCC(F)(F)F)cc(-c3cccc(CN(C)CCN)c3)nc21` [Compound 222], the figures for the 50% inhibitory concentration (IC50) (at Human CARM1 (PRMT4); in assay [1]) were 34.4 nM and 3820 nM, respectively.

With `CNCCN(C)Cc1cccc(-c2cc(N3CCCC3)c3cnn(C(C)C)c3n2)c1` [Compound 214], the figures for the IC50 (at Human CARM1 (PRMT4); in assay [1]) were 26.6 nM and 20000 nM, respectively.

Regarding `CNCCN(C)Cc1cccc(-c2cc(C(=O)NCc3cccc(F)c3)c3cnn(C(C)C)c3n2)c1` [Compound 259], the IC50 at Human CARM1 (PRMT4) was 67 nM; in assay [1], 20000 nM.

For the molecule `CNCCN(C)Cc1cccc(-c2cc(C(=O)NC3CCOCC3)c3cnn(CC(F)(F)F)c3n2)c1` [Compound 270], the results for the IC50 (on Human CARM1 (PRMT4); in assay [1]) were 81 nM and 5140 nM, respectively.

Regarding `CC(C)n1ncc2c(NCC(=O)O)cc(-c3cccc(CN(C)CCN)c3)nc21` [Compound 319], the IC50 at Human CARM1 (PRMT4) was 401 nM; in assay [1], 20000 nM.

Take `CNCCN(C)Cc1cccc(-c2cc(C(=O)NC3CC3)c3cnn(C(C)C)c3n2)c1` [Compound 228]: the IC50 on Human CARM1 (PRMT4) was 41.2 nM; in assay [1] it was 1910 nM.

Take `CC(C)n1ncc2c(C(=O)NCc3nccn3C)cc(-c3cccc(CN(C)CCN)c3)nc21` [Compound 215]: the results for the IC50 (at Human CARM1 (PRMT4); in assay [1]) were 29.1 nM and 2240 nM, respectively.

Consider `CNCCN(C)Cc1cccc(-c2cc(C(=O)NCC(F)(F)F)c3cnn(C(C)C)c3n2)c1` [Compound 288], for which the IC50 on Human CARM1 (PRMT4) came to 159 nM; in assay [1], 3440 nM.

`CCN(Cc1cccnc1)C(=O)c1cc(-c2cccc(CN(C)CCNC)c2)nc2c1cnn2C(C)C` [Compound 254]: the IC50 was determined as 61.8 nM on Human CARM1 (PRMT4) and 5520 nM in assay [1].

As for `CC(C)n1ncc2c(C(=O)NCC3CCOCC3)cc(-c3cccc(CN(C)CCNC4CCC4)c3)nc21` [Compound 273], the IC50 at Human CARM1 (PRMT4) was determined as 87.7 nM; in assay [1], 14500 nM.

With `CNCCN(C)Cc1cccc(-c2cc(OC3CCOCC3)c3cnn(C(C)C)c3n2)c1` [Compound 187], the figures for the IC50 (on Human CARM1 (PRMT4); in assay [1]) were 12 nM and 6090 nM, respectively.

Regarding `CCNCCN(C)Cc1cccc(-c2cc(C(=O)NCC3CCOCC3)c3cnn(C(C)C)c3n2)c1` [Compound 271], the IC50 at Human CARM1 (PRMT4) came out at 81.4 nM; in assay [1], 20000 nM.

Turning to `CNCCN(C)Cc1cccc(-c2cc(-c3ccsc3)c3cnn(C(C)C)c3n2)c1` [Compound 235], the IC50 at Human CARM1 (PRMT4) was found to be 45.8 nM; in assay [1], 20000 nM.

In the case of `CNCCN(C)Cc1cccc(-c2cc(-c3ccc(F)cc3)c3cnn(C(C)C)c3n2)c1` [Compound 275], the IC50 on Human CARM1 (PRMT4) stood at 92.8 nM; in assay [1], 20000 nM.
